Laboratory results reported in patent US5091419A, “Diurea derivatives useful as medicaments and processes for the preparation thereof” (Yamanouchi Pharmaceutical Co., Ltd., priority 1988, dated 1992).

Target: acyl CoA: cholesterol acyltransferase (ACAT)
Test: Inhibiting activity against ACAT activity of rabbit's liver microsome
Type: biochemical
Conditions: rabbit's liver microsome enzyme fraction, 1-14C-oleoyl CoA, 37° C.; read-out: Inhibiting activity against ACAT activity: IC (M) 50%
Experimental: Inhibiting activity against acyl CoA: cholesterol acyltransferase (ACAT) activity of rabbit's liver microsome According to Heider's method [J. G. Heider et al., J. of Lipid Res. Vol. 24, 1127-34 (1983)], rabbit's liver microsome was treated to obtain enzyme fraction. To 0.154M of phosphoric acid buffer solution (pH 7.4), 2 mM of dithiothreitol, 36 μM of bovine serum albumin and 10 to 100 μg of microsome fraction, liposome prepared by Suckling's method [K. E. […] Then, 36 μM oleoyl CoA containing 1-^14 C-oleoyl CoA was added and the whole mixture was heated for 10 minutes at the temperature of 37° C. The reaction was ceased by adding chloroform/methanol (=2/1). Upon stirring, cholesterol oleate extracted into chloroform layer was separated by thin layer chromatography and the radioactivity was then determined as ACAT activity.

IC50: 1.8e-08 M
SMILES: O=C(Nc1ccc(F)cc1F)N(Cc1cccc(CN(C(=O)Nc2ccc(F)cc2F)C2CCCCCC2)c1)C1CCCCCC1 [Example 1, 1,3-bis[[1-cycloheptyl-3-(2,4-difluorophenyl)ureido]methyl]benzene]
